Test results as given in ChEMBL document CHEMBL4706583, “2-Anilinoquinoline based arylamides as broad spectrum anticancer agents with B-RAF/C-RAF kinase inhibitory effects: Design, synthesis, in vitro cell-based and oncogenic kinase assessments” (Eur J Med Chem, 2020).

Tests used:
Malme-3M = assay: Growth inhibition of human Malme-3M cells measured after 48 hrs by SRB assay; assay type: functional
DU-145 = assay: Growth inhibition of human DU-145 cells measured after 48 hrs by SRB assay; assay type: functional
HOP-62 = assay: Growth inhibition of human HOP-62 cells measured after 48 hrs by SRB assay; assay type: functional
UACC-257 = assay: Growth inhibition of human UACC-257 cells measured after 48 hrs by SRB assay; assay type: functional
NCI-H460 = assay: Growth inhibition of human NCI-H460 cells measured after 48 hrs by SRB assay; assay type: functional
OVCAR-5 = assay: Growth inhibition of human OVCAR-5 cells measured after 48 hrs by SRB assay; assay type: functional
MCF7 = assay: Growth inhibition of human MCF7 cells measured after 48 hrs by SRB assay; assay type: functional
MDA-MB-231 = assay: Growth inhibition of human MDA-MB-231 cells measured after 48 hrs by SRB assay; assay type: functional
NCI-H226 = assay: Growth inhibition of human NCI-H226 cells measured after 48 hrs by SRB assay; assay type: functional
HT-29 = assay: Growth inhibition of human HT-29 cells measured after 48 hrs by SRB assay; assay type: functional
Hs-578T = assay: Growth inhibition of human Hs-578T cells measured after 48 hrs by SRB assay; assay type: functional
OVCAR-3 = assay: Growth inhibition of human OVCAR-3 cells measured after 48 hrs by SRB assay; assay type: functional
PC-3 = assay: Growth inhibition of human PC-3 cells measured after 48 hrs by SRB assay; assay type: functional
OVCAR-4 = assay: Growth inhibition of human OVCAR-4 cells measured after 48 hrs by SRB assay; assay type: functional
KM12 = assay: Growth inhibition of human KM12 cells measured after 48 hrs by SRB assay; assay type: functional
IGROV-1 = assay: Growth inhibition of human IGROV-1 cells measured after 48 hrs by SRB assay; assay type: functional
CCRF-CEM = assay: Growth inhibition of human CCRF-CEM cells measured after 48 hrs by SRB assay; assay type: functional
COLO 205 = assay: Growth inhibition of human COLO 205 cells measured after 48 hrs by SRB assay; assay type: functional
NCI-H522 = assay: Growth inhibition of human NCI-H522 cells measured after 48 hrs by SRB assay; assay type: functional
SK-MEL-28 = assay: Growth inhibition of human SK-MEL-28 cells measured after 48 hrs by SRB assay; assay type: functional
MOLT-4 = assay: Growth inhibition of human MOLT-4 cells measured after 48 hrs by SRB assay; assay type: functional
HOP-92 = assay: Growth inhibition of human HOP-92 cells measured after 48 hrs by SRB assay; assay type: functional
EKVX = assay: Growth inhibition of human EKVX cells measured after 48 hrs by SRB assay; assay type: functional
NCI-H322M = assay: Growth inhibition of human NCI-H322M cells measured after 48 hrs by SRB assay; assay type: functional
SK-MEL-5 = assay: Growth inhibition of human SK-MEL-5 cells measured after 48 hrs by SRB assay; assay type: functional
UO-31 = assay: Growth inhibition of human UO-31 cells measured after 48 hrs by SRB assay; assay type: functional
786-0 = assay: Growth inhibition of human 786-0 cells measured after 48 hrs by SRB assay; assay type: functional
BT-549 = assay: Growth inhibition of human BT-549 cells measured after 48 hrs by SRB assay; assay type: functional
SF-539 = assay: Growth inhibition of human SF-539 cells measured after 48 hrs by SRB assay; assay type: functional
SN12C = assay: Growth inhibition of human SN12C cells measured after 48 hrs by SRB assay; assay type: functional
SNB-75 = assay: Growth inhibition of human SNB-75 cells measured after 48 hrs by SRB assay; assay type: functional
A549 = assay: Growth inhibition of human A549 cells measured after 48 hrs by SRB assay; assay type: functional
M14 = assay: Growth inhibition of human M14 cells measured after 48 hrs by SRB assay; assay type: functional
OVCAR-8 = assay: Growth inhibition of human OVCAR-8 cells measured after 48 hrs by SRB assay; assay type: functional
SK-MEL-2 = assay: Growth inhibition of human SK-MEL-2 cells measured after 48 hrs by SRB assay; assay type: functional
SW-620 = assay: Growth inhibition of human SW-620 cells measured after 48 hrs by SRB assay; assay type: functional
RXF 393 = assay: Growth inhibition of human RXF 393 cells measured after 48 hrs by SRB assay; assay type: functional
K562 = assay: Growth inhibition of human K562 cells measured after 48 hrs by SRB assay; assay type: functional
HL-60(TB) = assay: Growth inhibition of human HL-60(TB) cells measured after 48 hrs by SRB assay; assay type: functional
A498 = assay: Growth inhibition of human A498 cells measured after 48 hrs by SRB assay; assay type: functional
NCI-H23 = assay: Growth inhibition of human NCI-H23 cells measured after 48 hrs by SRB assay; assay type: functional
LOX IMVI = assay: Growth inhibition of human LOX IMVI cells measured after 48 hrs by SRB assay; assay type: functional
SNB-19 = assay: Growth inhibition of human SNB-19 cells measured after 48 hrs by SRB assay; assay type: functional
SR = assay: Growth inhibition of human SR cells measured after 48 hrs by SRB assay; assay type: functional
MDA-MB-435 = assay: Growth inhibition of human MDA-MB-435 cells measured after 48 hrs by SRB assay; assay type: functional
NCI/ADR-RES = assay: Growth inhibition of human NCI/ADR-RES cells measured after 48 hrs by SRB assay; assay type: functional
RPMI-8226 = assay: Growth inhibition of human RPMI-8226 cells measured after 48 hrs by SRB assay; assay type: functional
UACC-62 = assay: Growth inhibition of human UACC-62 cells measured after 48 hrs by SRB assay; assay type: functional
SF-295 = assay: Growth inhibition of human SF-295 cells measured after 48 hrs by SRB assay; assay type: functional
T47D = assay: Growth inhibition of human T47D cells measured after 48 hrs by SRB assay; assay type: functional
HCT-15 = assay: Growth inhibition of human HCT-15 cells measured after 48 hrs by SRB assay; assay type: functional
TK-10 = assay: Growth inhibition of human TK-10 cells measured after 48 hrs by SRB assay; assay type: functional
CAKI-1 = assay: Growth inhibition of human CAKI-1 cells measured after 48 hrs by SRB assay; assay type: functional
HCT-116 = assay: Growth inhibition of human HCT-116 cells measured after 48 hrs by SRB assay; assay type: functional
ACHN = assay: Growth inhibition of human ACHN cells measured after 48 hrs by SRB assay; assay type: functional
SK-OV-3 = assay: Growth inhibition of human SK-OV-3 cells measured after 48 hrs by SRB assay; assay type: functional
HCC 2998 = assay: Growth inhibition of human HCC 2998 cells measured after 48 hrs by SRB assay; assay type: functional
U-251 = assay: Growth inhibition of human U-251 cells measured after 48 hrs by SRB assay; assay type: functional
[1] = target: RAF proto-oncogene serine/threonine-protein kinase (Homo sapiens, UniProt P04049); assay: Inhibition of human CRAF at 10 uM using MEK1 (K97R) as substrate in presence of [gamma-33P]ATP by scintillation counting method relative to control
[2] = target: Serine/threonine-protein kinase B-raf (Homo sapiens, UniProt P15056); assay: Inhibition of human BRAF at 10 uM using MEK1 (K97R) as substrate in presence of [gamma-33P]ATP by scintillation counting method relative to control
[3] = system: Serine/threonine-protein kinase B-raf (Homo sapiens), P15056 [V600E]; assay: Inhibition of human BRAF V600E mutant at 10 uM using MEK1 (K97R) as substrate in presence of [gamma-33P]ATP by scintillation counting method relative to control
Sequence of Serine/threonine-protein kinase B-raf (Homo sapiens), P15056 [V600E] (P15056 whole entry V600E): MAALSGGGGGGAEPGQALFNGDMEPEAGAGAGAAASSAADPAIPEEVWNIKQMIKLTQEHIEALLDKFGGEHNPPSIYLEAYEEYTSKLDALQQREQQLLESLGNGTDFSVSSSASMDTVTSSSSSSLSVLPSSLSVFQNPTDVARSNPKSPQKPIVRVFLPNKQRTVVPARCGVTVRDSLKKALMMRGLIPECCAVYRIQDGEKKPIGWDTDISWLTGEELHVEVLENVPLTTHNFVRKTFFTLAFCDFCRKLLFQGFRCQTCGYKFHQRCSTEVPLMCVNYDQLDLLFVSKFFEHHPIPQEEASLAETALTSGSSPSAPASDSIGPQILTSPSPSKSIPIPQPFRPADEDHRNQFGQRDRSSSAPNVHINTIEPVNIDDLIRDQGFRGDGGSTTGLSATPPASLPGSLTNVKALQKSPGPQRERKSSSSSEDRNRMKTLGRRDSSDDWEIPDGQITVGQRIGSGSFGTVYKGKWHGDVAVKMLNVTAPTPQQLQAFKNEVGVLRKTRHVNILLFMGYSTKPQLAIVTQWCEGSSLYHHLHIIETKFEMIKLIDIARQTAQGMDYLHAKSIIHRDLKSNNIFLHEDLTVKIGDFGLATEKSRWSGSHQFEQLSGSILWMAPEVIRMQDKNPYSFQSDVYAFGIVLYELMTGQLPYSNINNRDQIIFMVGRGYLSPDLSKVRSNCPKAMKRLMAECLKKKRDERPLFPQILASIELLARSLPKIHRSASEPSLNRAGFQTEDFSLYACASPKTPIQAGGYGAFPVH

Sequence of RAF proto-oncogene serine/threonine-protein kinase (P04049 whole entry): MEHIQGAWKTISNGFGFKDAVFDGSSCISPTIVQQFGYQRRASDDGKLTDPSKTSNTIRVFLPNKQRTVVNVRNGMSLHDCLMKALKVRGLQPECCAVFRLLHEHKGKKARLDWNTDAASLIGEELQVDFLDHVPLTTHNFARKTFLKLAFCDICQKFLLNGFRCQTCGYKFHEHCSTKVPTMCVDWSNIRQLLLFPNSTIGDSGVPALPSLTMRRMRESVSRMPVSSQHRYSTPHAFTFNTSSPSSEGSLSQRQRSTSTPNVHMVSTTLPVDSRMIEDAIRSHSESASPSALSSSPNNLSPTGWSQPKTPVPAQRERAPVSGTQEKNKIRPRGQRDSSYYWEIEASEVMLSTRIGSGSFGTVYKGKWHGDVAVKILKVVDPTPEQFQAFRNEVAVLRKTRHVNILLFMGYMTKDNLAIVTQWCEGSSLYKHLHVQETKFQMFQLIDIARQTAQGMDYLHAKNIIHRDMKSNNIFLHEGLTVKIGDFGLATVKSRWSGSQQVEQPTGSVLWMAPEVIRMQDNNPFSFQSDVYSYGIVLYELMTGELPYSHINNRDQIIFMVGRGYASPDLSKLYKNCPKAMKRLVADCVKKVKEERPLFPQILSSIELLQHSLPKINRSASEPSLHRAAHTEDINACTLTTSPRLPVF
Sequence of Serine/threonine-protein kinase B-raf (P15056 whole entry): as the sequence (P15056 whole entry V600E) above, with E600V counted along it

In the case of `Cc1ccc(NC(=O)c2ccc(CN3CCN(C)CC3)cc2)cc1Nc1nccc(-c2cccnc2)n1` [IMATINIB], the GI50 (Malme-3M) is reported as 16.3 µM, the GI50 (DU-145) is reported as 18.8 µM and the GI50 (HOP-62) is reported as 21.5 µM. For the same compound, the GI50 (UACC-257) was 21.1 µM, the GI50 (NCI-H460) was 16.2 µM and the GI50 (OVCAR-5) was 0.58 µM. The GI50 (MCF7) was 18.2 µM, the GI50 (MDA-MB-231) was 18.7 µM and the GI50 (NCI-H226) was 18.1 µM. For the same compound, the GI50 (HT-29) was 3.97 µM, the GI50 (Hs-578T) was 14.6 µM and the GI50 (OVCAR-3) was 34.2 µM. The GI50 (PC-3) was 21.4 µM, the GI50 (OVCAR-4) was 20 µM and the GI50 (KM12) was 18.8 µM. For the same compound, the GI50 (IGROV-1) was 21.2 µM, the GI50 (CCRF-CEM) was 17 µM and the GI50 (COLO 205) was 17.6 µM. It also gave a GI50 (NCI-H522) of 16.4 µM, a GI50 (SK-MEL-28) of 14.6 µM and a GI50 (MOLT-4) of 5.13 µM. It also gave a GI50 (HOP-92) of 13.3 µM, a GI50 (EKVX) of 26.2 µM and a GI50 (NCI-H322M) of 22.8 µM. For the same compound, the GI50 (SK-MEL-5) was 12.1 µM, the GI50 (UO-31) was 22.3 µM and the GI50 (786-0) was 16 µM. The GI50 (BT-549) was 16.1 µM, the GI50 (SF-539) was 10.6 µM and the GI50 (SN12C) was 33.2 µM. It also gave a GI50 (SNB-75) of 20.3 µM, a GI50 (A549) of 24.5 µM and a GI50 (M14) of 19.3 µM. It also gave a GI50 (OVCAR-8) of 27.7 µM, a GI50 (SK-MEL-2) of 25 µM and a GI50 (SW-620) of 23.4 µM. The GI50 (RXF 393) was 15.1 µM, the GI50 (K562) was 0.02 µM and the GI50 (HL-60(TB)) was 13.5 µM. It also gave a GI50 (A498) of 22 µM, a GI50 (NCI-H23) of 15 µM and a GI50 (LOX IMVI) of 18.1 µM. For the same compound, the GI50 (SNB-19) was 38.6 µM, the GI50 (SR) was 7.14 µM and the GI50 (MDA-MB-435) was 17.9 µM. For the same compound, the GI50 (NCI/ADR-RES) was 23 µM, the GI50 (RPMI-8226) was 6.05 µM and the GI50 (UACC-62) was 19 µM. It also gave a GI50 (SF-295) of 19.8 µM, a GI50 (T47D) of 19.9 µM and a GI50 (HCT-15) of 19.9 µM. It also gave a GI50 (TK-10) of 26.9 µM, a GI50 (CAKI-1) of 34 µM and a GI50 (HCT-116) of 12.6 µM. The GI50 (ACHN) was 25.2 µM, the GI50 (SK-OV-3) was 28.9 µM and the GI50 (HCC 2998) was 21.2 µM. The GI50 (U-251) was 18 µM.

Compound `COc1cc2cc(Oc3ccc(NC(=O)c4cc(C(F)(F)F)cc(C(F)(F)F)c4)cc3)c(C)nc2cc1OC` has a GI50 (PC-3) of 1.66 µM, a GI50 (OVCAR-4) of 4.53 µM and a GI50 (HOP-92) of 1.82 µM. It also gave a GI50 (SK-MEL-5) of 2.76 µM, a GI50 (BT-549) of 3.02 µM and an inhibition [1] of 76.7%. The GI50 (A498) was 1.13 µM, the inhibition [2] was under 47% and the inhibition [3] was under 47%. The GI50 (RPMI-8226) was 1.57 µM, the GI50 (SF-295) was 1.64 µM and the GI50 (HCT-116) was 1.56 µM.
